In the METLIN SMRT retention time set (Domingo-Almenara et al. 2019):

Test: gradient 5% acetonitrile 3 min, to 50% in 2 min, to 85% in 15 min, held 3 min, 100 µL/min
Conditions: column: Zorbax Extend-C18 2.1 x 50 mm; eluents: water / acetonitrile, 0.1% formic acid
Method in brief: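 Each retention time is based on an adduct peak selected computationally and verified by manual inspection. Measurements used HPLC–quadrupole time-of-flight mass spectrometry in positive and negative ionization mode on mixtures of ~100 pure standards. Chromatography ran on a Zorbax Extend-C18 column (2.1 × 50 mm, 1.8 μm) at 100 μL/min with water and acetonitrile, each containing 0.1% formic acid, and dead and dwell volumes of 40 μL and 900 μL.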

| RP-LC retention time | Structure (SMILES) |
| --- | --- |
| 1110 s | O=C1CCCc2nc(N3CCN(c4ncccn4)CC3)nc(Nc3ccccc3)c21 |
| 1000 s | CC(C)CN(CC(C)C)C(=O)C1CCCN(c2ncnc3c2nc2n3CCCCC2)C1 (stereo not drawn) |
| 725 s | Cc1ccc(F)cc1NC(=O)CN1CCC(c2nc(-c3cccs3)no2)CC1 |
| 749 s | O=C(NCc1ccccc1)c1cn(Cc2ccc(NC(=O)C3CCCCC3)cc2)cn1 |
| 713 s | Cc1[nH]c(C(=O)N2CCC(CC(=O)NC(C)C)CC2)c(C)c1C(=O)OC(C)C |
| 711 s | CC(C)CNC(=O)C1CCN(C(=O)c2ncn3c2COC(c2ccc(F)cc2)C3)CC1 (stereo not drawn) |
| 731 s | CCOc1ccc2c(n1)CCN(C(=O)NC1CCCC1)C2 |
| 747 s | CCc1ccc(CNC(=O)C2CCN(c3cnc4nccnc4c3)CC2)cc1 |
| 654 s | CC(C)N1CCN(C(=O)C2=NN(c3ccc(Cl)cc3)c3ncccc3S2(=O)=O)CC1 |
| 1220 s | O=C(Nc1ccc(Br)cc1)C1CCCN(c2nccnc2Sc2ccccc2)C1 (stereo not drawn) |
| 1040 s | CCOC(=O)C1CCCN(c2cc(-n3nc(C)cc3C)ncn2)C1 (stereo not drawn) |
| 913 s | CCOC(=O)c1c(S(=O)(=O)N2CCC(C(=O)N3CCc4ccccc43)CC2)c(C)n(C)c1C |
| 780 s | Cc1ccsc1C(=O)N1CCC2(CCCCO2)CC1 |
| 830 s | CCC1(O)CCC12CCN(C(=O)CC1CCCC1)CC2 (stereo not drawn) |
| 741 s | Cc1ccc2[nH]cc(CCNC(=O)C3CCCN(c4nccc(C)n4)C3)c2c1 (stereo not drawn) |
| 1070 s | O=C(Nc1cccc(Cl)c1)C1CCCN(C(=O)Cc2cccc3ccccc23)C1 (stereo not drawn) |
| 721 s | CCOC(=O)C(C)(C)Sc1nnc(NC(=O)C2CCN(S(C)(=O)=O)CC2)s1 |
| 552 s | c1cncc(-c2n[nH]c(C3CCCN(Cc4ccsc4)C3)n2)c1 (stereo not drawn) |
| 658 s | O=C(Cn1cnc2nc(N3CCOCC3)ncc2c1=O)Nc1ccc2c(c1)OCCO2 |
| 698 s | O=C(NC1CCCCCC1)c1cc(NS(=O)(=O)c2ccc(Cl)cc2)cnc1N1CCNCC1 |
| 755 s | CSc1ccc(CNC(=O)C2CCCN(c3cnc4nc(C)c(C)nc4c3)C2)cc1 (stereo not drawn) |
| 914 s | Cc1ccc2c(c1)N(S(C)(=O)=O)CCC(C(=O)NC1CCCCC1)O2 (stereo not drawn) |
| 630 s | Cc1ccc2c(C(=O)Nc3ccc(N4CCOCC4)cc3)cc(NC(=O)C3CCC3)cc2n1 |

The remaining lines, values behind:

| Structure (SMILES) | RP-LC retention time |
| --- | --- |
| CCS(=O)(=O)Nc1ccc2nc(N3CCN(c4ccccc4OC)CC3)cc(C(=O)O)c2c1 | 633 s |
| C=CCNC(=O)c1ccc2c(c1)N(C)C(=O)CS2 | 671 s |
| CC(C)NC(=O)c1c2c(cn(-c3ccc(F)cc3)c1=O)C(=O)CC(C)(C)C2 | 869 s |
| CCc1ccc(-c2cc(C(F)(F)F)on2)cc1S(=O)(=O)N1CCN(c2ncccn2)CC1 | 1230 s |
| Cc1nnc2cc(N3CCN(Cc4cn[nH]c4-c4cccs4)CC3)cnn12 | 543 s |
| O=C(NCCCN1CCOCC1)C(=O)Nc1ccc(Br)cc1F | 625 s |
| COc1ccccc1NC(=O)Nc1ccc2c(c1)N(S(=O)(=O)c1cccs1)CCC2 | 967 s |
| COC(=O)c1ccc(C(=O)NCC(O)(c2ccccc2)C(F)(F)F)cc1 (stereo not drawn) | 842 s |
| Cc1cc(-c2nnc3sc(COc4ccc(F)cc4)nn23)n[nH]1 | 727 s |
| CCc1cccc(C)c1NS(=O)(=O)c1ccc(-c2c(C)noc2C)cc1 | 1020 s |
| CCOC(=O)C(C)Oc1ccc2c(=O)c(Oc3ccccc3OCC)coc2c1 (stereo not drawn) | 971 s |
| CC(NC(=O)C1=CCN(Cc2ccc(F)cc2)CC1)c1ccccc1 (stereo not drawn) | 640 s |
| O=C(Nc1ccc(S(=O)(=O)N2CCOCC2)cc1)c1ccc(Br)s1 | 858 s |
| Fc1ccc(-c2ccc(CNC3CN4CCC3CC4)o2)cc1 (stereo not drawn) | 558 s |
| COc1ccc(-c2cn3ccn(-c4cccc(F)c4)c(=O)c3n2)cc1OC | 746 s |
| CCn1ccc(C(=O)NCc2cccnc2Oc2ccccc2)n1 | 705 s |
| COc1ccc2oc(-c3ccncc3)cc(=O)c2c1 | 701 s |
| Cc1cccc(-c2noc(C3CCCN3S(=O)(=O)c3c(C)c(C)cc(C)c3C)n2)c1 (stereo not drawn) | 849 s |
| O=C(CSc1ccc(F)cc1)Nc1ccc2c(c1)CC(=O)N2 | 646 s |
| O=C(Cc1cccc(Cl)c1)NC1CCN(c2cc(-c3cccs3)[nH]n2)C1 (stereo not drawn) | 702 s |
| Cc1cc(C(=O)NCC2CCN(C(=O)NC(C)(C)C)CC2)no1 | 649 s |
| Cc1nncn1C1CN(C(=O)c2ccc(N(C)C)cc2)C1 | 602 s |
| O=C(Nc1nc(-c2cccs2)cs1)c1cccc([N+](=O)[O-])c1 | 936 s |

| Structure (SMILES) | RP-LC retention time |
| --- | --- |
| O=C1CC(c2noc(-c3ccccc3F)n2)CN1c1ccc(F)cc1 (stereo not drawn) | 916 s |
| COc1cccc(Cc2nc(Cn3c(C)nc4ccccc4c3=O)no2)c1 | 812 s |
| COc1cccc(-c2cc3n(n2)CCCN(C(=O)NCc2ccco2)C3)c1 | 850 s |
| COC(=O)c1cn(CC(=O)Nc2ccc(Br)cc2F)c2nc(C)ccc2c1=O | 775 s |
| CCOC(=O)CNC(=O)N1CC(CC)Oc2ccc(C)cc21 (stereo not drawn) | 935 s |
| O=C1CC(NC(=O)C2c3ccccc3Oc3ccccc32)CN1 (stereo not drawn) | 638 s |
| Cc1nnc(CNC(=O)C(=O)Nc2ccc(Cl)cn2)o1 | 628 s |
| CCCN1C(=O)c2ccccc2C(C(=O)NC2CC2)C1c1cc(OC)c(OC)c(OC)c1 (stereo not drawn) | 696 s |
| Cc1ccc(-c2nc(NC(=O)c3cncc(Br)c3)sc2C)cc1 | 1180 s |
| CC(=O)c1cccc(C(=O)N2CCC3(CC2)NC(=O)N(Cc2ccccc2)C3=O)c1 | 733 s |
| CC[C@@H](CO)Nc1nc(NCc2ccc(-c3ccccn3)cc2)c2ncn(C(C)C)c2n1 | 632 s |
| CCOc1ccc(C2c3[nH]c4ccccc4c3CCN2C(=O)COC)cc1 (stereo not drawn) | 981 s |
| NC(=O)c1[nH]c2ccc(F)cc2c1N1CCCC1=O | 637 s |
| O=C(NC1CC1)c1ccnc(N2CCNC(c3ccccc3)C2)c1 (stereo not drawn) | 583 s |
| Cc1onc(-c2cccc(Br)c2)c1C(=O)NCCCN1CCOCC1 | 629 s |
| Cc1ccc(-c2nnc(-c3ccc(Br)cc3)o2)cc1S(=O)(=O)N(C)C | 1090 s |
| C=CCn1c(SCC(=O)NCC2CCCO2)nc2scc(-c3ccc(C)o3)c2c1=O (stereo not drawn) | 895 s |
| COc1ccccc1NC(=O)CSc1nc2c(-c3ccccc3)csc2c(=O)n1C | 960 s |
| O=C(NCc1ccco1)c1scc(-c2ccc(F)cc2)c1-n1cccc1 | 1110 s |
| Cc1ccc(-c2noc(CN3C(=O)COc4cc(Cl)ccc43)n2)cc1 | 1140 s |
| COc1ccc(-c2ncc3c(n2)CCN(S(=O)(=O)c2ccccc2Cl)C3)cc1 | 1070 s |
| CCc1cccc(NC(=O)Cn2c(=O)n(-c3ccc(C)cc3)c(=O)c3c2cc(C)n3C)c1 | 975 s |
